# Tests used:
# [1] = molecular target: C-C chemokine receptor type 5 (Homo sapiens, UniProt P51681); assay: In vitro binding affinity at CCR5 receptor in the presence of [125I]-MIP-1 alpha.
# [2] = system: Human immunodeficiency virus 1; assay: In vitro inhibition of HIV-1 BAL strain infection of HeLa cell line.; type: functional; details: Human immunodeficiency virus 1, HeLa
# [3] = Half-life in rhesus monkey; type: ADME; details: cercopithecidae, in vivo
# [4] = Bioavailability in dog; type: ADME, organism-based, Canis lupus familiaris; details: in vivo
# [5] = Plasma clearance in rat; type: ADME, organism-based; details: read-out: Clp
# [6] = Bioavailability in rat; type: ADME, organism-based; details: in vivo
# [7] = Bioavailability in Rhesus monkey; type: ADME, organism-based, Macaca mulatta; details: in vivo
# [8] = Volume of distribution in steady state was determined in rhesus monkey; type: ADME, organism-based; details: cercopithecidae, in vivo; read-out: Vdss
# [9] = Half-life in dog; type: ADME, organism-based, Canis lupus familiaris; details: in vivo
# [10] = Volume of distribution in steady state was determined in rat; type: ADME, organism-based; details: in vivo, read-out: Vdss
# [11] = Volume of distribution in steady state was determined in dog; type: ADME, organism-based, Canis lupus familiaris; details: in vivo, read-out: Vdss
# [12] = Plasma clearance in dog; type: ADME, organism-based, Canis lupus familiaris; details: read-out: Clp
# [13] = Half-life in rat; type: ADME, organism-based; details: in vivo
# [14] = molecular target: Voltage-gated L-type calcium channel (Homo sapiens, UniProt Q13936+Q13698+Q01668+O60840); assay: Inhibition of L-type Ca+2 channels; type: protein assay
# [15] = Inhibitory concentration was determined against peripheral blood mononuclear cells (PBMC); type: functional
# [16] = Plasma clearance in rhesus monkey; type: ADME, organism-based; details: cercopithecidae, read-out: Clp
# Macaca mulatta = species on record: Macaca mulatta; assay: Plasma clearance in rhesus monkey; details: read-out: Clp
# C-C chemokine receptor type 5, sequence (P51681 whole entry): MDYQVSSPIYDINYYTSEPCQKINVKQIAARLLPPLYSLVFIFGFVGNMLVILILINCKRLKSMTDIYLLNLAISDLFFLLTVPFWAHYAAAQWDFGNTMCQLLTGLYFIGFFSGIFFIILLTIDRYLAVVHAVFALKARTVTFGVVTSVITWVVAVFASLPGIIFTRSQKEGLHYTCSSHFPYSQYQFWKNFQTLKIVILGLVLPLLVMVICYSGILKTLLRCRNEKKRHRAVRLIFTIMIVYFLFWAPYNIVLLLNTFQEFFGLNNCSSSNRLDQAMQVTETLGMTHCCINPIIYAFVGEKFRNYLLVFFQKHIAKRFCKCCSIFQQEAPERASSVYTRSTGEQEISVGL
structure (smiles),measurement,setting,value
O=C(O)[C@H](C1CCCCC1)N1C[C@H](CN2CCC(O)(CCCc3ccccc3)CC2)[C@@H](c2ccccc2)C1,IC50,[1],5 nM
same,IC90,[2],> 300 nM
COC(=O)[C@H](C1CCCCC1)N1C[C@H](CN2CCC(O)(CCCc3ccccc3)CC2)[C@@H](c2ccccc2)C1,IC50,[1],4 nM
O=C(OCc1ccccc1)[C@@H](C1CCCCC1)N1C[C@H](CN2CCC(O)(CCCc3ccccc3)CC2)[C@@H](c2ccccc2)C1,IC50,[1],3.6 nM
same,IC90,[2],> 300 nM
O=C(O)[C@@H](c1ccccc1)N1C[C@H](CN2CCC(O)(CCCc3ccccc3)CC2)[C@@H](c2ccccc2)C1,IC50,[1],0.8 nM
same,IC90,[2],33 nM
O=C(O)CN1C[C@H](CN2CCC(O)(CCCc3ccccc3)CC2)[C@@H](c2ccccc2)C1,IC50,[1],6 nM
same,IC90,[2],3000 nM
C[C@H](C(=O)O)N1C[C@H](CN2CCC(O)(CCCc3ccccc3)CC2)[C@@H](c2ccccc2)C1,IC50,[1],3 nM
same,IC90,[2],333 nM
O=C(O)[C@@H](C1CCCCC1)N1C[C@H](CN2CCC(CCCc3ccccc3)CC2)[C@@H](c2ccccc2)C1,half-life,[3],6.3 h
same,bioavailability,[4],43%
same,clearance,[5],1.06 L/h/kg
same,bioavailability,[6],26%
same,bioavailability,[7],10%
same,Vd,[8],6.2 L/kg
same,half-life,[9],9.2 h
same,Vd,[10],3.3 L/kg
same,Vd,[11],3.1 L/kg
same,clearance,[12],0.654 L/h/kg
same,half-life,[13],2.1 h
same,IC50,[1],0.1 nM
same,IC90,[2],11 nM
same,IC50,[14],5300 nM
same,IC95,[15],77 nM
same,clearance,[16],1.03 L/h/kg
OC[C@@H](C1CCCCC1)N1C[C@H](CN2CCC(O)(CCCc3ccccc3)CC2)[C@@H](c2ccccc2)C1,IC50,[1],1 nM
same,IC90,[2],300 nM
O=C(O)[C@@H](C1CCCCC1)N1C[C@H](CN2CCC(c3ccc(F)cc3)CC2)[C@@H](c2ccccc2)C1,IC50,[1],4 nM
same,IC90,[2],0.4 nM
OC[C@H](C1CCCCC1)N1C[C@H](CN2CCC(O)(CCCc3ccccc3)CC2)[C@@H](c2ccccc2)C1,IC50,[1],1 nM
O=C(O)[C@@H](CC1CCC1)N1C[C@H](CN2CCC(CCCc3ccccc3)CC2)[C@@H](c2ccccc2)C1,clearance,[5],1.59 L/h/kg
same,bioavailability,[6],29%
same,Vd,[10],5.9 L/kg
same,half-life,[13],3 h
same,IC50,[1],0.1 nM
same,IC90,[2],1.2 nM
same,IC50,[14],2700 nM
same,IC95,[15],< 8 nM
O=C(O)[C@@H](CC1CC1)N1C[C@H](CN2CCC(CCCc3ccccc3)CC2)[C@@H](c2ccccc2)C1,IC50,[1],0.1 nM
same,IC90,[2],11 nM
CC(C)[C@H](C(=O)O)N1C[C@H](CN2CCC(O)(CCCc3ccccc3)CC2)[C@@H](c2ccccc2)C1,IC50,[1],2 nM
same,IC90,[2],333 nM
CC(C)[C@H](C(=O)O)N1C[C@H](CN2CCC(CCCc3ccccc3)CC2)[C@@H](c2ccccc2)C1,IC50,[1],0.7 nM
same,IC90,[2],111 nM
O=C(O)[C@@H](C1CC1)N1C[C@H](CN2CCC(CCCc3ccccc3)CC2)[C@@H](c2ccccc2)C1,IC50,[1],3 nM
same,IC90,[2],300 nM
OC1(CCCc2ccc(-c3nnn[nH]3)cc2)CCN(C[C@H]2CN(CC3CCCCC3)C[C@@H]2c2ccccc2)CC1,bioavailability,[6],0%
same,half-life,[13],0.3 h
same,IC90,[2],4 nM
same,IC50,[14],> 10000 nM
O=C(O)[C@@H](C1CCC1)N1C[C@H](CN2CCC(CCCc3ccccc3)CC2)[C@@H](c2ccccc2)C1,IC50,[1],0.1 nM
same,IC90,[2],11 nM
O=C(OCc1ccccc1)[C@H](C1CCCCC1)N1C[C@H](CN2CCC(O)(CCCc3ccccc3)CC2)[C@@H](c2ccccc2)C1,IC50,[1],24 nM
same,IC90,[2],> 300 nM
O=C(O)[C@@H](C1CCCCC1)N1C[C@H](CN2CCC(O)(CCCc3ccccc3)CC2)[C@@H](c2ccccc2)C1,clearance,[5],7.68 L/h/kg
same,bioavailability,[6],0%
same,Vd,[10],15 L/kg
same,half-life,[13],1.8 h
same,IC50,[1],0.5 nM
same,IC90,[2],11 nM
same,IC95,[15],187 nM
CC(C)[C@H](C(=O)O)N1C[C@H](CN2CCC(c3ccc(F)cc3)CC2)[C@@H](c2ccccc2)C1,half-life,[3],7.8 h
same,bioavailability,[4],34%
same,clearance,[5],4.1 L/h/kg
same,bioavailability,[6],50%
same,bioavailability,[7],84%
same,Vd,[8],4.2 L/kg
same,half-life,[9],6.4 h
same,Vd,[10],8.4 L/kg
same,Vd,[11],8.6 L/kg
same,clearance,[12],0.786 L/h/kg
same,half-life,[13],1.9 h
same,IC50,[1],36 nM
same,IC90,[2],> 100 nM
same,IC50,[14],> 10000 nM
same,IC95,[15],> 3000 nM
same,clearance,Macaca mulatta,0.876 L/h/kg
COC(=O)[C@@H](C1CCCCC1)N1C[C@H](CN2CCC(O)(CCCc3ccccc3)CC2)[C@@H](c2ccccc2)C1,IC50,[1],1 nM
O=C(O)[C@@H](C1CCCC1)N1C[C@H](CN2CCC(CCCc3ccccc3)CC2)[C@@H](c2ccccc2)C1,IC50,[1],0.2 nM
same,IC90,[2],11 nM

# — ChEMBL document CHEMBL1134920, “1,3,4-Trisubstituted pyrrolidine CCR5 receptor antagonists. Part 4: synthesis of N-1 acidic functionality affording analogues with enhanced antiviral activity against HIV” (Bioorg Med Chem Lett, 2002)
